Laboratory results taken from patent publication US8524257B2, “Menthol-containing solids composition” (Symrise AG, priority 2005, dated 2013).

Columns and labels:
[1] = Dissolving test in ethanol/water, time to complete dissolution; assay type: physicochemical; conditions: 5 g in 95 g ethanol/water (equal parts by weight), 20° C., stirred, visual determination
Experimental: The different rates of dissolution of a solids composition according to the invention of Example 1a above and of forms of l-menthol that are not in accordance with the invention were compared.
To this end, 5 g of l-menthol or 5 g of the l-menthol-containing solids composition according to the invention of Example 1a were added to 95 g of a mixture, kept at a constant temperature of 20° C., of equal parts by weight of ethanol and water, and the time taken for the menthol or the menthol-containing solids composition to dissolve completely (visual determination) was calculated.
The dissolving test was carried out in a glass beaker having a diameter of 5 cm and a filling height of 7 cm. The contents of the glass beaker were stirred during the dissolving test in each case using a magnetic stirring bead having a length of 4 cm with a magnetic stirrer speed of 4 revolutions per second. The temperature was monitored with a Pt-100 thermometer which was immersed to a depth of 5 cm in the liquid, was located at a distance of 1 cm from the wall of the glass beaker and at the same time served as flow breaker.
The size of the crystals corresponded to the typical (commercial) crystal geometry of natural l-menthol.

[2] = cited from earlier work

SMILES | Time to complete dissolution [1] | further results
CC(C)[C@@H]1CC[C@@H](C)C[C@H]1O [Menthol crystals from Example 1, l-menthol] | 170 s | –
CC(C)[C@@H]1CC[C@@H](C)C[C@H]1O [flaked l-menthol, l-menthol] | – | adhesion and clumping ([2]; after 24 hours, as described in U.S. Pat. No. 3,064,311): adhesion and clumping of the flakes
CC(C)[C@@H]1CC[C@@H](C)C[C@H]1O [Crystals of natural menthol, l-menthol] | 255 s | –
CC(C)[C@@H]1CC[C@@H](C)C[C@H]1O [Menthol pellets according to WO 03/101924, Example 1] [l-menthol] | 504 s | –
CC(C)[C@@H]1CC[C@@H](C)C[C@H]1O [Clumped menthol crystals, l-menthol] | 280 s | –
CC1CCC(C(C)C)C(O)C1 (stereo not drawn) [menthol pressed articles, menthol] | – | clumping and caking ([2]; stored for prolonged periods of over three months): gradually clump and cake together
